Laboratory results published in paper PMC7182274 (PLoS Pathogens, 2020).

What was measured:
ΔNClpB = molecular target: T1, ΔNClpB (Francisella tularensis, UniProt A0Q8N0)
T1 construct: gene clpB

[1] = molecular target: F. novicida DnaK (F. novicida)

| Compound | ATPase activity (ΔNClpB) | refolding of urea-denatured firefly luciferase with DnaK, DnaJ, GrpE and ATP [1] [%] |
| --- | --- | --- |
| Nc1ncnc2c1ncn2[C@@H]1O[C@H](COP(=O)(O)OP(=O)(O)OP(=O)(O)O)[C@@H](O)[C@H]1O [ATP] | ΔNClpB had a slightly increased basal ATPase activity in the absence of casein |  |
| F. novicida ClpB (wild-type) (natural protein) |  | 83 |
